From patent publication US20120010281A1, “ANTIMICROBIAL AND ANTI[…]” (THE TRUSTEES OF PRINCETON UNIVERSITY, priority 2010, published 2012)
≈ marks a conversion by molar mass, not a printed value.

Tested on: M. tuberculosis mc^27000
Test: microbe, parasite or virus in culture
Assay type: cell-based
Conditions: for MIC: Mycobacterium tuberculosis, 120 h, range of assayed concentrations that bounds the mean of three independent determinations, read-out: mc^27000 7H9 MIC; for inhibitory activity against Mtb mc^27000 (in words): comment on the Table 1 MIC values, relative to tiamulin

| Structure (SMILES) | MIC [µg/mL] | inhibitory activity against Mtb mc^27000 (in words) |
| --- | --- | --- |
| C=C1C[C@@H](OC(=O)CO)C2CCCC3(CCC(=O)C23)C[C@@H]1O (some centres unmarked) [Compound 4] | > 200 | – |
| C=C1C[C@@H](OC(=O)CSCCN(CC)CC)C2CCCC3(CCC(=O)C23)C[C@@H]1O (some centres unmarked) [Compound 20a] | 50 to 100 (≈ 118 to 236 µM) | attenuated activity |
| C=C1C[C@@H](OC(=O)CSCCN(CC)CC)C2CCCC3(CCC(=O)C23)C[C@H]1O (some centres unmarked) [Compound 20c] | 12 to 25 (≈ 28.3 to 59 µM) | compares favorably to tiamulin |
| CCN(CC)CCSCC(=O)O[C@H]1C/C(C)=C\CC23CCCC1C2C(=O)CC3 (some centres unmarked) [Compound 25] | 50 (≈ 123 µM) | moderate, yet significant, level of activity |
| C=CC1(C)C[C@@H](OC(=O)CO)C2(C)C(C)CCC3(CCC(=O)C32)[C@@H](C)[C@@H]1O (some centres unmarked) [Pleuromutilin (1), Pleuromutilin, reference compound] | 25 to 50 (≈ 66 to 132 µM) | low micromolar MIC values |
| C=C[C@]1(C)C[C@@H](OC(=O)CSCCN(CC)CC)C2(C)C(C)CCC3(CCC(=O)C32)[C@@H](C)[C@@H]1O (some centres unmarked) [tiamulin (3), tiamulin, reference compound] | 12 to 25 (≈ 24.3 to 50.6 µM) | low micromolar MIC values |
